One compound from patent publication US20090286804A1, “METABOLITES OF 1-[6-(1-ETHYL-1-HYDROXY-PROPYL)-PYRIDIN-3-YL]-3-[2-(4-METHYL-PIPERAZIN-1-YL)-BENZYL]-PYRROLIDIN-2-ONE AS SERATONIN RECEPTOR ANTAGONISTS” (Pfizer Inc, priority 2005, published 2009) can be followed below.

SMILES strings stand for the structures.

The assay concerns the target serotonin-1 receptors (5-HT1A and/or 5-HT1B). Put plainly: radioligand binding assay for serotonin-1 receptor affinity (IC50). The settings on record: receptor subtype not given. From the text: The affinities of the compounds of this invention for the various serotonin-1 receptors can be determined using standard radioligand binding assays as described in the literature. The 5-HT1A affinity can be measured using the procedure of Hoyer et al. (Brain Res., 376, 85 (1986)). The 5-HT1B affinity can be measured using the procedure of Heuring and Peroutka (J. Neurosci., 7, 894 (1987)).
The in vitro activity of the compounds of the present invention at the 5-HT1B binding site can be determined according to the following procedure. Bovine caudate tissue is homogenized and suspended in 20 volumes of a buffer containing 50 mM TRIS•hydrochloride (tris[hydroxymethyl]aminomethane hydrochloride) at a pH of 7.7. The homogenate is then centrifuged at 45,000 G for 10 minutes. The supernatant is then discarded and the resulting pellet resuspended in approximately 20 volumes of 50 mM TRIS•hydrochloride buffer at pH 7.7. […]
The inhibitor, control or vehicle is then incubated according to the following procedure. […] The percent inhibition can be calculated for each dose of the compound. An IC50 value can then be calculated from the percent inhibition values.
The activity of the compounds of the present invention for 5-HT1A binding ability can be determined according to the following procedure. […] The tissue is stored at −70° C. until ready for an experiment. […]

Consider `CCC(O)(c1ccc(N2CC[C@@H](Cc3ccccc3N3CCN(C)CC3)C2=O)cn1)C(C)O` (stereo in doubt) [Formula I, 1-[6-(1-ethyl-1,2-dihydroxy-propyl)-pyridin-3-yl]-3-[2-(4-methyl-piperazin-1-yl)-benzyl]-pyrrolidin-2-one], for which the IC50 is no more than 100 nM.

Usually IC50 stands for the concentration needed to halve the response being measured. Read a high IC50 as lower potency.
